Among the data in US9145415B2, “Nitrogen-containing heterocyclic compound or salt thereof” (FUJIFILM Corporation, priority 2012, dated 2015) are IC50 values, retold here.

For test [1], the target named is T1, human FLT3 protein (FLT3 (WT)) (Homo sapiens, UniProt P36888).
T1 construct: human FLT3 protein (intracellular region, 564 to 993 aa); GST; purchased Carna Biosciences; host or cells: baculovirus expression system
T1 sequence (P36888 564-993): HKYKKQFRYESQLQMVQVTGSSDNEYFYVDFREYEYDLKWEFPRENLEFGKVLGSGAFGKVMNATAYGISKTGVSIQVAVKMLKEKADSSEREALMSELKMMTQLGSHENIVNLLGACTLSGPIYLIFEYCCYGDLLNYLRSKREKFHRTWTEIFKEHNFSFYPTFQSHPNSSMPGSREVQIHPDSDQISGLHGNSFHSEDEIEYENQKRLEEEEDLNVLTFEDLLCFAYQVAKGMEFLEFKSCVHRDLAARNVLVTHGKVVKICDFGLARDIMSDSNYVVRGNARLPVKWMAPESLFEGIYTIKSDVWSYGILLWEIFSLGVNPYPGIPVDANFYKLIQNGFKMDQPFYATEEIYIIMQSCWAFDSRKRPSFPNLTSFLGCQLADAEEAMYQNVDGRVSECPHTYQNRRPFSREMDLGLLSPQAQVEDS
The test can be described thus: FLT3 inhibition test (FLT3 enzyme inhibition, time-resolved fluorescence of substrate peptide phosphorylation). It counts as biochemical. The note with it: GST-fused human FLT3 (564 to 993 aa), ATP 50 μM; read-out: FLT3 (WT) enzyme inhibition activity. The protocol: The FLT3 inhibition test was performed for the compounds of the present invention by the method described below.
A reaction mixture in a volume of 9 μL containing the FLT3 protein and a test compound of a predetermined concentration (1.2 μg of FLT3, 100 mM HEPES, 10 mM MgCl2, 25 mM NaCl, 0.01% BSA, 1 mM DTT, pH 7.5) was left standing at 25° C. for 15 minutes. […] (Toray Industries), and 3 μL (final concentration 50 μM) of ATP (Sigma-Aldrich) were added to the reaction mixture, and the mixture was shaken for 2 minutes, and then further left standing at 25° C. for 30 minutes to allow the enzymatic reaction.

For another test, the system named is MV4-11 cells. Nature of the test: Leukemia cell proliferation inhibition test (ATPlite), MV4-11. To be noted: Homo sapiens, MV4-11, 72 h, MV4-11, 72 hours culture, ATPlite; GI50 per method; read-out: MV4-11 cell proliferation inhibition effect. It counts as cell-based. The protocol:
(§1) A leukemia cell proliferation inhibition test was performed for the compounds of the present invention by using the leukemia cell strains MV4-11 (ATCC Number, CRL-9591) and Molm-13 (DSMZ Number, ACC554).
(§2) The leukemia cell proliferation inhibition test was performed by the method described below.
(§3) For the purpose of measuring proliferation inhibition attained with a compound, the total cell count was quantified on the basis of the total cellular ATP concentration using the ATPlite (PerkinElmer) reagent utilizing firefly luciferase. The Molm-13 or MV4-11 cells were added to the RPMI medium containing penicillin and streptomycin (penn/strep) and 10% FBS at a density of 2×10^5 cells/ml, and 50 μL (10,000 cells) of the cell suspension was inoculated to each well of a 96-well plate (Corning).
(§4) A serially diluted solution of a compound or 0.1% DMSO (solvent control) in a volume of 50 μL was added to the cells, and then the cells were cultured for 72 hours under the standard cell proliferation conditions (37° C., 5% CO2) to allow proliferation of the cells. In order to measure the proliferation of the total cells, equal volume of the ATPlite reaction mixture was added to each well in accordance with the instructions attached to ATPlite, and then luminescence count of the well was measured (relative light unit, RLU).
(§5) The RLU signal observed with the DMSO solvent control after 72 hours of the culture was defined as a signal indicating 0% inhibition, and the GI50 value for the proliferation inhibition corresponds to a concentration of a compound that provides 50% inhibition based on the proliferation of the total cells contained in the DMSO solvent control. Each data point was obtained from samples in duplicate. The GI50 values were calculated by the non-linear regression fitting (Fit Model (205)) according to a sigmoid dose-reaction equation using the XLfit software.
In general terms: In ATP-based viability assays light output follows the ATP content of the culture.

The next test relates to Molm-13 cells. The test can be described thus: Leukemia cell proliferation inhibition test (ATPlite), Molm-13. The class given is cell-based. The note with it: Homo sapiens, MOLM-13, 72 h, Molm-13, 72 hours culture, ATPlite; GI50 per method; read-out: MOLM13 cell proliferation inhibition effect. The method, then: as §1, §2, §3, §4, §5

On to `C=CC(=O)NCC(=O)NCCCNC(=O)c1cnc(NCCc2ccncc2)nc1NCCC` [Compound 2-2, N-(3-(2-(acrylylamido)actamido)propyl)-4-(propylamino)-2-((2-(pyridin-4-yl)ethyl)amino)pyrimidine-5-carboxamide], for which the IC50 is below 10 nM in test [1], 10 to 100 nM with MV4-11 cells and 10 to 100 nM in the test on Molm-13 cells.

Consider `C=CC(=O)N[C@H](C)C(=O)Nc1cccc(NC(=O)c2cnc(NCCc3ccncc3)nc2NCCC)c1` [Compound 2-3], for which the figures for the IC50 (in test [1]; in the test with MV4-11 cells; with Molm-13 cells) were below 10 nM, 10 to 100 nM and 10 to 100 nM, respectively.

For `C=CC(=O)NC(C)(C)C(=O)Nc1cccc(NC(=O)c2cnc(NCCc3ccncc3)nc2NCCC)c1` [Compound 2-4], the values for the IC50 (in test [1]; in the test on MV4-11 cells; in the test with Molm-13 cells) were below 10 nM, below 10 nM and 10 to 100 nM, respectively.

For `C=CC(=O)NCC(=O)Nc1cc(Cl)cc(NC(=O)c2cnc(NCCc3ccncc3)nc2NCCC)c1` [Compound 2-5], the results for the IC50 (in test [1]; in the test with MV4-11 cells; with Molm-13 cells) were below 10 nM, 10 to 100 nM and 10 to 100 nM, respectively.

Turning to `C=CC(=O)NCC(=O)Nc1cc(NC(=O)c2cnc(NCCc3ccncc3)nc2NCCC)c(C)cc1C` [Compound 2-6], the IC50 (in test [1]; in the test on MV4-11 cells; in the test with Molm-13 cells) was 10 to 100 nM each time.

With `C=CC(=O)NCCC(=O)Nc1cccc(NC(=O)c2cnc(NCCc3ccncc3)nc2NCCC)c1` [Compound 2-7], the values for the IC50 (in test [1]; in the test with MV4-11 cells; with Molm-13 cells) were below 10 nM, 10 to 100 nM and 100 to 1000 nM, respectively.

Take `CCCNc1nc(NCCc2ccncc2)ncc1C(=O)Nc1cccc(NC(=O)CNC(=O)/C=C/CN(C)C)c1` [Compound 2-9]: the IC50 (in test [1]; with MV4-11 cells; in the test on Molm-13 cells) was below 10 nM throughout.

`CCCNc1nc(NCCc2ccncc2)ncc1C(=O)Nc1cccc(NC(=O)CCNC(=O)/C=C/CN(C)C)c1` [Compound 2-10]: the IC50 was below 10 nM in test [1], 100 to 1000 nM with MV4-11 cells and 100 to 1000 nM in the test with Molm-13 cells.

`CCCNc1nc(NCCc2ccncc2)ncc1C(=O)Nc1cccc(NC(=O)C(C)(C)NC(=O)/C=C/CN(C)C)c1` [Compound 2-11]: the IC50 in test [1] is below 10 nM; in the test on MV4-11 cells, 10 to 100 nM; in the test with Molm-13 cells, 10 to 100 nM.

As to `CCCNc1nc(NCCc2ccncc2)ncc1C(=O)Nc1cccc(NC(=O)[C@H](C)N(C)C(=O)/C=C/CN(C)C)c1` [Compound 2-12, (S,E)-N-(3-(2-(4-(Dimethylamino)-N-methyl-2-butenamido)propanamido)phenyl)-4-(propylamino)-2-((2-(pyridin-4-yl)ethyl)amino)pyrimidine-5-carboxamide], the IC50 (in test [1]; in the test on MV4-11 cells; in the test on Molm-13 cells) was below 10 nM in each case.

`CCCNc1nc(NCCc2ccncc2)ncc1C(=O)Nc1cccc(NC(=O)CNC(=O)/C=C/CN2CCOCC2)c1` [Compound 2-13]: the IC50 in test [1] was below 10 nM; in the test on MV4-11 cells, 10 to 100 nM; in the test with Molm-13 cells, 10 to 100 nM.

On to `CCCNc1nc(NCCc2ccncc2)ncc1C(=O)Nc1cccc(NC(=O)CNC(=O)/C=C/CN2CCN(C)CC2)c1` [Compound 2-14], for which the figures for the IC50 (in test [1]; in the test on MV4-11 cells; in the test on Molm-13 cells) were below 10 nM, 10 to 100 nM and 10 to 100 nM, respectively.

Turning to `CCCNc1nc(NCCc2ccncc2)ncc1C(=O)Nc1cccc(NC(=O)CNC(=O)/C=C/CN2CC(C)NC(C)C2)c1` (stereo not drawn) [Compound 2-15], the IC50 in test [1] was below 10 nM; in the test on MV4-11 cells, 100 to 1000 nM; with Molm-13 cells it was 100 to 1000 nM.

With `CCCNc1nc(NCCc2ccncc2)ncc1C(=O)Nc1cccc(NC(=O)CNC(=O)/C=C/CN2CCN(CCO)CC2)c1` [Compound 2-16], the IC50 is below 10 nM in test [1], 10 to 100 nM with MV4-11 cells and 100 to 1000 nM in the test with Molm-13 cells.

Consider `C=CC(=O)NCCNC(=O)c1cnc(NCCc2ccncc2)nc1NCCC` [Compound 2-17], for which the results for the IC50 (in test [1]; in the test on MV4-11 cells; in the test with Molm-13 cells) were 10 to 100 nM, 100 to 1000 nM and 100 to 1000 nM, respectively.

For `C=CC(=O)NCC(=O)NCCNC(=O)c1cnc(NCCc2ccncc2)nc1NCCC` [Compound 2-18], the values for the IC50 (in test [1]; in the test with MV4-11 cells; in the test on Molm-13 cells) were 10 to 100 nM, above 1000 nM and above 1000 nM, respectively.

In the case of `C=CC(=O)NCCC(=O)NCCNC(=O)c1cnc(NCCc2ccncc2)nc1NCCC` [Compound 2-19], the IC50 was 10 to 100 nM in test [1], above 1000 nM in the test with MV4-11 cells and above 1000 nM in the test with Molm-13 cells.

Regarding `C=CC(=O)NCCOc1cccc(NC(=O)c2cnc(NCCc3ccncc3)nc2NCCC)c1` [Compound 2-20], the IC50 in test [1] was below 10 nM; in the test on MV4-11 cells, 10 to 100 nM; in the test on Molm-13 cells it was 10 to 100 nM.

For the compound `C=CC(=O)NCCCNC(=O)c1cnc(NCCc2ccncc2)nc1NCCC` [Compound 2-21], the IC50 (in test [1]; in the test on MV4-11 cells; in the test on Molm-13 cells) was 10 to 100 nM in each case.

In the case of `C=CC(=O)N(C)CC(=O)NCCCNC(=O)c1cnc(NCCc2ccncc2)nc1NCCC` [Compound 2-23], the IC50 is below 10 nM in test [1], 10 to 100 nM in the test on MV4-11 cells and below 10 nM in the test with Molm-13 cells.

As for `CCCNc1nc(NCCc2ccncc2)ncc1C(=O)NCCCNC(=O)CNC(=O)/C=C/CN(C)C` [Compound 2-24], the IC50 in test [1] is below 10 nM; with MV4-11 cells, 10 to 100 nM; with Molm-13 cells, 10 to 100 nM.

Regarding `C=CC(=O)Nc1cccc(NC(=O)c2cnc(NCCc3ccncc3)nc2NCCC)c1` [Compound 2-25], the results for the IC50 (in test [1]; in the test with MV4-11 cells; with Molm-13 cells) were 10 to 100 nM, 100 to 1000 nM and 100 to 1000 nM, respectively.

In the case of `C=CC(=O)Nc1cccc(CNC(=O)c2cnc(NCCc3ccncc3)nc2NCCC)c1` [Compound 2-26], the IC50 in test [1] is 10 to 100 nM; with MV4-11 cells, 100 to 1000 nM; with Molm-13 cells, 100 to 1000 nM.

Take `C=CC(=O)NCC(=O)Nc1cccc(CNC(=O)c2cnc(NCCc3ccncc3)nc2NCCC)c1` [Compound 2-27]: the IC50 in test [1] fell in the range of 10 to 100 nM; in the test on MV4-11 cells it was 100 to 1000 nM; with Molm-13 cells, 100 to 1000 nM.

For the compound `C=CC(=O)Nc1cc(NC(=O)c2cnc(NCCc3ccncc3)nc2NCCC)cc(C(F)(F)F)c1` [Compound 2-28], the IC50 (in test [1]; in the test on MV4-11 cells; with Molm-13 cells) was 100 to 1000 nM in each case.

With `C=CC(=O)NCC(=O)Nc1ccccc1CNC(=O)c1cnc(NCCc2ccncc2)nc1NCCC` [Compound 2-29], the IC50 in test [1] lay within 10 to 100 nM; in the test with MV4-11 cells it was 100 to 1000 nM; with Molm-13 cells, 100 to 1000 nM.

As for `CCCNc1nc(Nc2ccc(C(N)=O)cc2)ncc1C(=O)Nc1cccc(NC(=O)[C@H](C)N(C)C(=O)/C=C/CN(C)C)c1` [Compound 3-1, (S,E)-2-((4-carbamoylphenyl)amino)-N-(3-(2-(4-(dimethylamino)-N-methyl-2-butenamido)propanamido)phenyl)-4-(propylamino)pyrimidine-5-carboxamide], the IC50 (in test [1]; in the test with MV4-11 cells; with Molm-13 cells) was below 10 nM each time.

Consider `C=CC(=O)NCC(=O)NC1CCCC(NC(=O)c2cnc(Nc3ccc(C(N)=O)cc3)nc2NCCC)C1` (stereo not drawn) [Compound 3-2], for which the IC50 in test [1] is below 10 nM; in the test with MV4-11 cells, 10 to 100 nM; in the test with Molm-13 cells, 10 to 100 nM.

As for `CCCNc1nc(Nc2ccc(C(N)=O)cc2)ncc1C(=O)NC1CCCC(NC(=O)CNC(=O)/C=C/CN(C)C)C1` (stereo not drawn) [Compound 3-3], the IC50 in test [1] was below 10 nM; in the test with MV4-11 cells it was 10 to 100 nM; with Molm-13 cells it was 10 to 100 nM.
